Reference: US12458650B2, “Urination disorder-improving agent” (ASKA Pharmaceutical Co., Ltd., priority 2019, dated 2025)

How the values were obtained:
[1] = tested on: lower urinary tract obstruction model of rats; assay: Test Example 2: urination function in male rat lower urinary tract obstruction model (cystometry under no anesthesia); type: in vivo; settings: Group A: 10 mg/kg oral once a day, 14 days, in comparison with Group C (dutasteride 0.5 mg/kg), FIG. 7, 8
From the text: A lower urinary tract obstruction model of rats was used as a test system. A test substance was orally administered to the lower urinary tract obstruction model repeatedly over 14 days to examine the action on the urination function in the lower urinary tract obstruction model. The lower urinary tract obstruction model is not a benign prostatic hyperplasia model with enlarged prostate.
More specifically, the rats (male, Crl:CD(SD), 8-week-old; Charles River Laboratories Japan, Inc.) were operated to form lower urinary tract obstruction and repeatedly received oral administration of the test substance at a frequency of once a day over 14 days. After the completion of the administration, each rat was subjected to bladder catheterization under anesthesia and cystometry under no anesthesia and was evaluated for the residual urine volume and the urination efficiency.
The test substances and the dosage in the test system (male rats with lower urinary tract obstruction) are as follows. • Solvent group (control group): 0.5 v/v % Polysorbate 80 solution, 10 mL/kg (n=8) • Group A: Compound A, 10 mg/kg (n=12) • Group C: Compound C (dutasteride), 0.5 mg/kg (n=11) • Dutasteride is a 5a reductase inhibitor.

[2] = tested on: urination disorder model associated with diabetes; assay: Test Example 4: urination disorder model associated with streptozocin-induced diabetes (cystometry, tissue weights, blood glucose, nomogram); type: in vivo, rat; settings: for Prostate, Dorsolateral prostate weight / Prostate, Ventral prostate weight: average ± SD; for Dorsolateral prostate (atrophy rate) / Seminal vesicle (atrophy rate) / Ventral prostate (atrophy rate) / Whole prostate (atrophy rate): relative to solvent group; for bladder contraction force on urination by nomogram analysis: in comparison with solvent group, FIG. 17
Description: As described below, as a urination disorder model, a urination disorder model associated with diabetes was prepared to evaluate the urination disorder. This model has no benign prostatic hyperplasia and is a model of a urination disorder associated with neuropathy and smooth muscle contraction disorder.
The body weights of rats (male, Crl:CD(SD), 5-week-old; Charles River Laboratories Japan, Inc.) were measured. After the rats were fasted overnight, the blood was collected from the caudal vein to measure the fasting blood glucose. On the basis of the body weight and the tasting blood glucose level, the rats were grouped or divided into two (2) groups by randomized, multivariable block allocation. The day after the rats were grouped, a first group received intraperitoneal administration of a citrate buffer (pH 4.5) (10 mL/kg) having a concentration of 0.1 mmol/L, and a second group received intraperitoneal administration of streptozocin (STZ; Sigma-Aldrich) (50 mg/kg). Streptozocin (STZ) was administered in the form of a solution of streptozocin having a concentration of 5 mg/mL in the citrate buffer.
About one (1) week after streptozocin (STZ) was administered, the body weight and the fasting blood glucose were measured. In the streptozocin (STZ) administration group (the second group), individuals having a fasting blood glucose level of not less than 300 mg/dL were used as animals with induced diabetes. These animals with induced diabetes are a model having no abnormality of the prostate (having no benign prostatic hyperplasia). On the basis of the body weight and the fasting blood glucose level, the animals (models) with induced diabetes were grouped or divided into three (3) groups by randomized, multivariable block allocation.
To the three model groups with induced diabetes, a 0.5 v/v % Polysorbate 80 solution (0.5% P) (10 mL/kg), the compound A (3 mg/kg), and the compound A (10 mg/kg) were orally administered, respectively, wherein the administration schedule in all groups was a frequency of once a day, only on weekdays, over four (4) weeks. Moreover, to the above-mentioned first group, a 0.5 v/v % Polysorbate 80 solution (0.5% P) (10 mL/kg) was orally administered in the same administration schedule (normal group). On the last day of administration, a cannula was inserted into and secured to the dome of the bladder under isoflurane anesthesia, and cystometry (Cystometogram, CMG) was conducted in the order of under awake condition and under urethane anesthesia to measure the intravesical pressure, the voided volume, and the residual urine volume. After the completion of the measurement, the blood was collected under deep isoflurane anesthesia, and then the prostate (ventral prostate, dorsolateral prostate), the seminal vesicle, the bladder, and the kidney were extracted and were each weighed. Moreover, the blood glucose level in the collected blood was measured.
The test substances and the dosage in the test system (rats having the urination disorder associated with diabetes) are as follows. • Normal group: citrate buffer 10 mL/kg (intraperitoneal administration), 0.5% P 10 mL/kg (oral administration) (n=10) • Solvent group (control group): STZ 50 mg/kg (intraperitoneal administration), 0.5% P 10 mL/kg (oral administration) (n=10) • Group A3: STZ 50 mg/kg (intraperitoneal administration), Compound A 3 mg/kg (oral administration) (n=10) • Group A10: STZ 50 mg/kg (intraperitoneal administration), Compound A 10 mg/kg (oral administration) (n=9) Urination Parameter:
The resulting data of the intravesical pressure, the voided volume, and the residual urine volume were analyzed, and the bladder capacity (mL), the residual urine volume (mL), and the urination efficiency (%) were determined as urination parameters in each urination. With respect to these urination parameters, the average value of two measurements was calculated and was taken as a measured value of each individual. […]

[3] = Group A3: 3 mg/kg oral, 4 weeks
[4] = Group A10: 10 mg/kg oral, 4 weeks

CC(=O)O[C@]1(C(C)=O)C[C@@H](O)[C@H]2[C@@H]3C=C(Cl)C4=CC(=O)OC[C@]4(C)[C@H]3CC[C@@]21C [Compound A, 17α-acetoxy-6-chloro-15β-hydroxy-2-oxa-4,6-pregnadiene-3,20-dione]
urination function (the residual urine volume, the urination efficiency) [1]: strong improvement action | Prostate, Dorsolateral prostate weight [2, 3]: 35.3 ± 7.8 mg/100 g body weight | Prostate, Ventral prostate weight ([2]; Group A3: 3 mg/kg oral, 4 weeks, male STZ rats): 62.2 ± 11.4 mg/100 g body weight | Dorsolateral prostate (atrophy rate) [2, 3]: (44.2%) | Seminal vesicle (atrophy rate) [2, 3]: (41.8%) | Ventral prostate (atrophy rate) [2, 3]: (43.0%) | Whole prostate (atrophy rate) [2, 3]: (43.4%) | urination efficiency ([2]; Group A3: 3 mg/kg, cystometry under anesthesia, FIG. 16): improved | bladder contraction force on urination by nomogram analysis ([2]; Group A3: 3 mg/kg, cystometry under anesthesia): strong bladder contraction force | residual urine volume ([2]; Group A3: 3 mg/kg, cystometry under anesthesia, vs solvent group, FIG. 15): significantly decreased | bladder capacity ([2]; Group A3: 3 mg/kg, cystometry under awake condition, vs solvent group, FIG. 11): significantly reduced | residual urine volume ([2]; Group A3: 3 mg/kg, cystometry under awake condition, vs solvent group, FIG. 12): significantly reduced | urination efficiency ([2]; Group A3: 3 mg/kg, cystometry under awake condition, vs solvent group, FIG. 13): improved | therapeutic effect on diabetes (blood glucose level relative to the solvent group) ([2]; Group A3 and Group A10: 3 and 10 mg/kg oral, 4 weeks): no therapeutic effect on diabetes | Prostate, Dorsolateral prostate weight [2, 4]: 28.8 ± 6.1 mg/100 g body weight | Prostate, Ventral prostate weight [2, 4]: 53.1 ± 13.5 mg/100 g body weight | Dorsolateral prostate (atrophy rate) [2, 4]: (54.5%) | Seminal vesicle (atrophy rate) [2, 4]: (50.2%) | Ventral prostate (atrophy rate) [2, 4]: (51.3%) | Whole prostate (atrophy rate) [2, 4]: (52.5%) | urination efficiency ([2]; Group A10: 10 mg/kg, cystometry under anesthesia, FIG. 16): improved | bladder capacity ([2]; Group A10: 10 mg/kg, cystometry under anesthesia, P=0.0336, FIG. 14): reduced | bladder contraction force on urination by nomogram analysis ([2]; Group A10: 10 mg/kg, cystometry under anesthesia): strong bladder contraction force | residual urine volume ([2]; Group A10: 10 mg/kg, cystometry under anesthesia, vs solvent group, FIG. 15): significantly decreased | bladder capacity ([2]; Group A10: 10 mg/kg, cystometry under awake condition, vs solvent group, FIG. 11): significantly reduced | residual urine volume ([2]; Group A10: 10 mg/kg, cystometry under awake condition, vs solvent group, FIG. 12): significantly reduced | urination efficiency ([2]; Group A10: 10 mg/kg, cystometry under awake condition, vs solvent group, P=0.0359, FIG. 13): significantly improved
